According to US9586958B2, “Prodrug derivatives of substituted triazolopyridines” (BAYER PHARMA AKTIENGESELLSCHAFT, priority 2013, dated 2017):
Like-named read-outs stand apart in the source and are kept apart here.

Assays:
[1] = Metabolic stability in vitro, dog liver microsomes (calculation of Fmax); type: in vitro ADME
Method: (§1) The metabolic stability of test compounds in vitro was determined by incubating them at 1 μM with a suspension liver microsomes in 100 mM phosphate buffer, pH7.4 (NaH2PO4×H2O+Na2HPO4×2H2O) at a protein concentration of 0.5 mg/mL and at 37° C. The reaction was activated by adding a co-factor mix containing 1.2 mg NADP, 3 IU glucose-6-phosphate dehydrogenase, 14.6 mg glucose-6-phosphate and 4.9 mg MgCl2 in phosphate buffer, pH 7.4. Organic solvent in the incubations was limited to <0.2% dimethylsulfoxide (DMSO) and <1% methanol. During incubation, the microsomal suspensions were continuously shaken and aliquots were taken at 2, 8, 16, 30, 45 and 60 min, to which equal volumes of cold methanol were immediately added. Samples were frozen at −20° C. over night, subsequently centrifuged for 15 minutes at 3000 rpm and the supernatant was analyzed with an Agilent 1200 HPLC-system with LCMS/MS detection.
(§2) The half-life of a test compound was determined from the concentration-time plot. From the half-life the intrinsic clearances were calculated. Together with the additional parameters liver blood flow, specific liver weight and microsomal protein content the hepatic in vivo blood clearance (CL) and the maximal oral bioavailability (Fmax) were calculated for the different species. The following parameter values were used: Liver blood flow—1.3 L/h/kg (human), 2.1 L/h/kg (dog), 4.2 L/h/kg (rat); specific liver weight—21 g/kg (human), 39 g/kg (dog), 32 g/kg (rat); microsomal protein content—40 mg/g.
(§3) With the described assay only phase-I metabolism of microsomes is reflected, e.g. typically oxidoreductive reactions by cytochrome P450 enzymes and flavin mono-oxygenases (FMO) and hydrolytic reactions by esterases (esters and amides).

[2] = system: HeLa-MaTu-ADR, multidrug-resistant human cervical carcinoma cells; assay: Proliferation assay, HeLa-MaTu-ADR cells (crystal violet); type: cell-based; conditions: read-out: IC50 determined in a HeLa-MaTu-ADR cell proliferation assay
Method: (§4) Cultivated tumor cells (MCF7, hormone dependent human mammary carcinoma cells, ATCC HTB22; NCI-H460, human non-small cell lung carcinoma cells, ATCC HTB-177; DU 145, hormone-independent human prostate carcinoma cells, ATCC HTB-81; HeLa-MaTu, human cervical carcinoma cells, EPO-GmbH, Berlin; HeLa-MaTu-ADR, multidrug-resistant human cervical carcinoma cells, EPO-GmbH, Berlin; HeLa human cervical tumor cells, ATCC CCL-2; B16F10 mouse melanoma cells, ATCC CRL-6475) were plated at a density of 5000 cells/well (MCF7, DU145, HeLa-MaTu-ADR), 3000 cells/well (NCI-H460, HeLa-MaTu, HeLa), or 1000 cells/well (B16F10) in a 96-well multititer plate in 200 μl of their respective growth medium supplemented 10% fetal calf serum. After 24 hours, the cells of one plate (zero-point plate) were stained with crystal violet (see below), while the medium of the other plates was replaced by fresh culture medium (200 μl), to which the test substances were added in various concentrations (0 μM, as well as in the range of 0.01-30 μM; the final concentration of the solvent dimethyl sulfoxide was 0.5%). The cells were incubated for 4 days in the presence of test substances. Cell proliferation was determined by staining the cells with crystal violet: the cells were fixed by adding 20 μl/measuring point of an 11% glutaric aldehyde solution for 15 minutes at room temperature. After three washing cycles of the fixed cells with water, the plates were dried at room temperature. The cells were stained by adding 100 μl/measuring point of a 0.1% crystal violet solution (pH 3.0). After three washing cycles of the stained cells with water, the plates were dried at room temperature. The dye was dissolved by adding 100 μl/measuring point of a 10% acetic acid solution. The extinction was determined by photometry at a wavelength of 595 nm. The change of cell number, in percent, was calculated by normalization of the measured values to the extinction values of the zero-point plate (=0%) and the extinction of the untreated (0 μm) cells (=100%). The IC50 values were determined by means of a 4 parameter fit.

[3] = Solubility of compound A1 at 25° C. in different solvents; type: physicochemical
[4] = Metabolic stability in vitro, rat liver microsomes (calculation of Fmax); type: in vitro ADME
Method: as §1, §2, §3

[5] = Metabolic stability in vitro, human liver microsomes (calculation of Fmax); type: in vitro ADME; conditions: for Human liver microsomes; Fmax [%]: 1 μM; for calculated maximal oral bioavailability (Fmax) at 1 μM: pH 7.4, determined by means of human liver microsomes, read-out: maximum oral bioavailability (Fmax) in human
Method: as §1, §2, §3

[6] = system: HeLa human cervical tumor cells; assay: Proliferation assay, HeLa cells (crystal violet); type: cell-based
Method: as §4

human kinase Mps-1 [7] = biological target: T1, human kinase Mps-1 (Homo sapiens, UniProt P33981); assay: Mps-1 kinase assay (TR-FRET) with 10 μM ATP; type: biochemical
T1 construct: N-terminally GST-tagged human full length recombinant Mps-1 kinase; GST (N); purchased Invitrogen, Karslruhe, Germany PV4071
T1 sequence (P33981 1-857): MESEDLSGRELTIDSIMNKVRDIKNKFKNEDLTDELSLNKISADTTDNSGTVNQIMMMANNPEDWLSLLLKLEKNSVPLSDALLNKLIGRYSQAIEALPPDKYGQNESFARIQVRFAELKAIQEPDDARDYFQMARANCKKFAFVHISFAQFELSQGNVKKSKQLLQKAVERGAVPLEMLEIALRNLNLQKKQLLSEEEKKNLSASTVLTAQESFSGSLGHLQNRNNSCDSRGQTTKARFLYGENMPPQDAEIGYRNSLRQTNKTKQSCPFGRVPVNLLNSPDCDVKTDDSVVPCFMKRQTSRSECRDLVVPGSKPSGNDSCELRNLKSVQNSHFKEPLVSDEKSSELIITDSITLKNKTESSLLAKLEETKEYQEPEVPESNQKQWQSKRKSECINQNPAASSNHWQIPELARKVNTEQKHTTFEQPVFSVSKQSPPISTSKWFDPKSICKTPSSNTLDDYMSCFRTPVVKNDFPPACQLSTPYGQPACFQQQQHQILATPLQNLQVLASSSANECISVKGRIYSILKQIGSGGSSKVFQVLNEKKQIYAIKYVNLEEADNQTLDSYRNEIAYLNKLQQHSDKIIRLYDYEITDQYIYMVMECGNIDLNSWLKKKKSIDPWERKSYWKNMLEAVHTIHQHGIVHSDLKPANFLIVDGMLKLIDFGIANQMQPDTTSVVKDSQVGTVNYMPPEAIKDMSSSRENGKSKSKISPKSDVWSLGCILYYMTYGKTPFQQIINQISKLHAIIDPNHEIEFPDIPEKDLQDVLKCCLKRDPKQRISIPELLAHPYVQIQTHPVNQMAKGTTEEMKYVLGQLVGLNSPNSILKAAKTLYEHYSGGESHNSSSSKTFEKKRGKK

human kinase Mps-1 [8] = biological target: T1, human kinase Mps-1; assay: Mps-1 kinase assay (TR-FRET) with 2 mM ATP; type: biochemical
[9] = comparison table with comparative examples
[10] = 96 h, HeLa cells, 4 days, read-out: Inhibition of cell proliferation, cell Line: HeLa IC50
[11] = HeLa, comparison table with comparative examples, read-out: Inhibition of cell proli-feration, cell line: HeLa, IC50
[12] = HeLa, read-out: IC50 in a HeLa cell proliferation assay
[13] = IC50 in an Mps-1 kinase assay with a concentration of 10 μM ATP
[14] = Mps-1 Inhibition, IC50 (Assay with 10 μM ATP), comparison table with comparative examples
[15] = Mps-1 Inhibition, IC50 in M (Assay with 10 μM ATP)
[16] = IC50 in an Mps-1 kinase assay with a concentration of 2 mM ATP
[17] = Mps-1 Inhibition, IC50 in M (Assay with 2 mM ATP)

| SMILES | Dog liver microsomes; Fmax [%] [1, 9] [%] | IC50 [6, 10] [µM] | IC50 [6, 11] [µM] | IC50 [6, 12] [µM] | IC50 (human kinase Mps-1 [7]; [14]) [µM] | Dog liver microsomes; Fmax [%] ([1]; dog liver microsomes, 1 μM) | IC50 [2] [µM] | Rat liver microsomes; Fmax [%] [4, 9] [%] | Rat liver microsomes; Fmax [%] ([4]; rat liver microsomes, 1 μM) | Human liver microsomes; Fmax [%] [5] [%] | calculated maximal oral bioavailability (Fmax) at 1 μM [5] [%] | further results |
| --- | --- | --- | --- | --- | --- | --- | --- | --- | --- | --- | --- | --- |
| COc1cc(S(C)(=O)=O)ccc1Nc1nc2ccc(-c3ccc(NC(=O)[C@H](C)c4ccc(F)cc4)cc3)cn2n1 [Compound A1, (2R)-2-(4-fluorophenyl)-N-[4-(2-{[2-methoxy-4-(methylsulfonyl)phenyl]-amino}[1,2,4]triazolo[1,5-α]pyridin-6-yl)phenyl]propanamide] | 64 | < 0.4 | < 0.4 | < 0.4 |  | 64 | < 10 | 92 | 92 | 92 | > 60 | dissolved amount in mg/100 mL solution ([3]; 0.1M HCl in water): <0.1 mg/100 mL; dissolved amount in mg/100 mL solution ([3]; aqueous solution, acetate buffer pH 4.5): <0.1 mg/100 mL; dissolved amount in mg/100 mL solution ([3]; aqueous solution, phopshate buffer pH 7): <0.1 mg/100 mL; dissolved amount in mg/100 mL solution ([3]; aqueous solution, phopshate buffer pH 8): <0.1 mg/100 mL; dissolved amount in mg/100 mL solution ([3]; solvent acetone): 1518.3 mg/100 mL; dissolved amount in mg/100 mL solution ([3]; solvent acetonitrile): 350.2 mg/100 mL; dissolved amount in mg/100 mL solution ([3]; solvent ethanol): 45.7 mg/100 mL; dissolved amount in mg/100 mL solution ([3]; solvent water): <0.1 mg/100 mL |
| COc1cc(C(=O)N2CC(F)C2)ccc1Nc1nc2ccc(-c3ccc(NC(=O)[C@H](C)c4ccc(F)cc4)cc3)cn2n1 [Compound A3, (2R)-N-{4-[2-({4-[(3-fluoroazetidin-1-yl)carbonyl]-2-methoxyphenyl}amino)-[1,2,4]triazolo[1,5-α]pyridin-6-yl]phenyl}-2-(4-fluorophenyl)propanamide] | 86 |  |  |  |  | 86 | < 10 | 83 | 83 | >95 | > 60 |  |
| N#Cc1c(F)cccc1Nc1nc2ccc(-c3ccc(NC(=O)Cc4ccc(F)cc4)cc3)cn2n1 [reference compound] | 15 |  |  |  |  |  |  |  |  |  |  |  |
| COc1cc(S(C)(=O)=O)ccc1Nc1nc2ccc(-c3ccc(NC(=O)Cc4ccc(F)cc4)cc3)cn2n1 [reference compound] | 10 |  |  |  |  |  |  |  |  |  |  |  |
| CS(=O)(=O)c1ccc(Nc2nc3ccc(-c4ccc(NC(=O)Cc5ccc(F)cc5)cc4)cn3n2)c(OCC(F)(F)F)c1 [reference compound] | 25 |  |  |  |  |  |  |  |  |  |  |  |
| N#Cc1ccccc1Nc1nc2cnc(-c3ccc(NC(=O)Cc4ccc(F)cc4)cc3)cn2n1 [reference compound] |  |  | 1.5 |  |  |  |  |  |  |  |  |  |
| N#Cc1ccccc1Nc1nc2ccc(-c3ccc(NC(=O)C4(c5ccccc5)CC4)cc3)cn2n1 [reference compound] |  |  | 1.4 |  | 0.011 |  |  |  |  |  |  |  |
| NC(C(=O)Nc1ccc(-c2ccc3nc(Nc4ccccc4C(F)(F)F)nn3c2)cc1)c1ccccc1 (centres unmarked) [reference compound] |  |  |  |  | 0.013 |  |  |  |  |  |  |  |

The next lines start with results.

| Dog liver microsomes; Fmax [%] [1, 9] [%] | IC50 [6, 10] [µM] | IC50 [6, 11] [µM] | IC50 [6, 12] [µM] | IC50 (human kinase Mps-1 [7]; [14]) [µM] | SMILES | Dog liver microsomes; Fmax [%] ([1]; dog liver microsomes, 1 μM) | IC50 [2] [µM] | Rat liver microsomes; Fmax [%] [4, 9] [%] | Rat liver microsomes; Fmax [%] ([4]; rat liver microsomes, 1 μM) | Human liver microsomes; Fmax [%] [5] [%] | calculated maximal oral bioavailability (Fmax) at 1 μM [5] [%] | further results |
| --- | --- | --- | --- | --- | --- | --- | --- | --- | --- | --- | --- | --- |
| 55 | < 0.2 | < 0.2 | < 0.4 | < 0.001 | C[C@@H](C(=O)Nc1ccc(-c2ccc3nc(Nc4ccc(S(C)(=O)=O)cc4OCC(F)(F)F)nn3c2)cc1)c1ccc(F)cc1 [Compound A2, (2R)-2-(4-fluorophenyl)-N-[4-(2-{[4-(methylsulfonyl)-2-(2,2,2-trifluoro-ethoxy)phenyl]amino}[1,2,4]triazolo[1,5-α]pyridin-6-yl)phenyl]-propanamide] | 55 | < 10 | 93 | 93 | >95 | > 60 | IC50 (human kinase Mps-1 [7]; [13]): ≤ 0.001 µM; IC50 (human kinase Mps-1 [7]; [15]): < 0.001 µM; IC50 (human kinase Mps-1 [8]; [16]): < 0.002 µM; IC50 (human kinase Mps-1 [8]; [17]): < 0.001 µM |
| 75 | < 0.1 | < 0.1 | < 0.4 | < 0.001 | COc1cc(C(=O)N2CCC2)ccc1Nc1nc2ccc(-c3ccc(NC(=O)[C@H](C)c4ccc(F)cc4)cc3)cn2n1 [Compound A4, (2R)-N-[4-(2-{[4-(azetidin-1-ylcarbonyl)-2-methoxyphenyl]amino}[1,2,4]-triazolo[1,5-α]pyridin-6-yl)phenyl]-2-(4-fluorophenyl)propanamide] | 75 | < 10 | 74 | 74 | 62 | > 60 | IC50 (human kinase Mps-1 [7]; [13]): ≤ 0.001 µM; IC50 (human kinase Mps-1 [7]; [15]): < 0.001 µM; IC50 (human kinase Mps-1 [8]; [16]): < 0.002 µM; IC50 (human kinase Mps-1 [8]; [17]): < 0.001 µM |
